Here are results for 8 compounds from US11076595B2, “1-(n,n-disubstituted carbamoyl) 4-(substituted sulfonyl)triazolin-5-one derivative, 4-(n,n-disubstituted carbamoyl) 1-(substituted sulfonyl)triazolin-5-one derivative, and herbicide containing said derivative as active ingredient” (HOKKO CHEMICAL INDUSTRY CO., LTD., priority 2017, dated 2021).

What all share (format): in vivo
The test system of assay [1] is Amaranthus viridis. The assay is described as follows: Test Example 14: herbicidal effect test by foliage treatment in upland field. Conditions: 7 days after sowing, 120 g/10a, 14 days after treatment. In short, it runs like this: (§1)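 Weeds sown 20 seeds each in alluvial field soil; 7 days after sowing, water-diluted emulsifiable concentrate sprayed at 100 L per 10 are, 120 g active ingredient per 10 are. Suppression rate (%) from dry weight versus untreated plots at 14 days, two replicates.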

Assay [2] has as its system Echinochloa crus-galli. Described as above. Conditions: 7 days after sowing, 120 g/10a, 14 days after treatment. In short, it runs like this:
as §1

Assay [3] has as its system Scirpus juncoides. Description: Test Example 12: herbicidal effect test by treatment during growing period in paddy field. Conditions: 120 g/10a; treatment seven days after sowing in flooded paddy pot; assessed 14 days after treatment. The method, boiled down: (§2)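 Paddy soil + NPK 17:17:17, puddled; 30 seeds/species sown 0–1 cm; flooded ~3 cm, greenhouse. Day 7 post-sowing: EC diluted in water, applied dropwise into water, 120 g a.i./10 are. Day 14 post-treatment: dry weight vs untreated → % suppression; n=2.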

Assay [4] concerns Echinochloa crus-galli. Described as above. The settings on record: 120 g/10a; treatment seven days after sowing in flooded paddy pot; assessed 14 days after treatment. In short, it runs like this:
as §2

Assay [5] deals with Monochoria vaginalis. The assay is described as above. Conditions: 120 g/10a; treatment seven days after sowing in flooded paddy pot; assessed 14 days after treatment. In short, it runs like this: as §2
For assay [6], the system named is Lindernia pyxidaria. The assay is described as above. The settings on record: 120 g/10a; treatment seven days after sowing in flooded paddy pot; assessed 14 days after treatment. The method, boiled down:
as §2

The test system of assay [7] is Scirpus juncoides. The assay is described as follows: Test Example 11: herbicidal effect test by soil treatment in paddy field. The settings on record: 120 g/10a active ingredient, 14 days after treatment. In short, it runs like this:
(§3)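 Pre-emergence flooded-paddy test: the water-diluted emulsifiable concentrate, 120 g active ingredient per 10 are, was dripped into pots immediately after seeding, with water held at about 3 cm. Two replicate pots per rate; 14 days after treatment, plant dry weight versus untreated pots gave the weed suppression rate.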

For assay [8], the system named is Echinochloa crus-galli. The assay is described as above. Conditions: 120 g/10a active ingredient, 14 days after treatment. In short, it runs like this:
as §3

In assay [9] the test system is Monochoria vaginalis. The assay is described as above. The settings on record: 120 g/10a active ingredient, 14 days after treatment. The method, boiled down:
as §3

Assay [10] concerns Lindernia pyxidaria. Described as above. Conditions: 120 g/10a active ingredient, 14 days after treatment. The method, boiled down:
as §3

Assay [11] concerns crabgrass. Description: Test Example 14: herbicidal effect test by foliage treatment in upland field. The settings on record: 7 days after sowing, 120 g/10a, 14 days after treatment. In short, it runs like this:
as §1

Assay [12] has as its system Chenopodium album. The description is as above. The settings on record: 7 days after sowing, 120 g/10a, 14 days after treatment. In short, it runs like this:
as §1

In assay [13] the test system is Amaranthus viridis. Description: Test Example 13: herbicidal effect test by soil treatment in upland field. The settings on record: 120 g/10a, 14 days after treatment. The method, boiled down:
(§4)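 Weed suppression rate (%) computed at 14 days as 1 minus treated/untreated mean dry weight, times 100, with two replicates per concentration. Emulsifiable concentrate diluted in water was applied at 120 g a.i. per 10 are (100 liter per 10 are) onto soil surface one day post-sowing of 20 seeds each in 36 cm^2 pots of alluvial soil.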

For assay [14], the system named is Echinochloa crus-galli. The description is as above. The settings on record: 120 g/10a, 14 days after treatment. In short, it runs like this: as §4
The subject of assay [15] is crabgrass. Described as above. Conditions: 120 g/10a, 14 days after treatment. The method, boiled down: as §4
The subject of assay [16] is Chenopodium album. Described as above. The settings on record: 120 g/10a, 14 days after treatment. The method, boiled down:
as §4

Each structure is given as a SMILES string.

For the compound `CC(C)N(C(=O)n1cnn(S(=O)(=O)C(C)C)c1=O)c1ccc(F)cc1F` [Compound 11-59], the “herbicidal effect, Amaranthus viridis” value with Amaranthus viridis [1] and with Amaranthus viridis [13] was 90% throughout. The “herbicidal effect, Echinochloa crus-galli” value in the assay on Echinochloa crus-galli [2] is 80%; in the assay with Echinochloa crus-galli [14], 100%. Besides, the “Weed suppression rate (%) Scirpus juncoides” value in the assay on Scirpus juncoides [3] amounted to 90%; in the assay on Scirpus juncoides [7], 100%. The “Weed suppression rate (%) Echinochloa crus-galli” value in the assay with Echinochloa crus-galli [4] and in the assay with Echinochloa crus-galli [8] was 100% each time. The “Weed suppression rate (%) Monochoria vaginalis” value with Monochoria vaginalis [5] and in the assay with Monochoria vaginalis [9] was 100% in each case. Further, the “Weed suppression rate (%) Lindemia pyxidaria” value in the assay with Lindernia pyxidaria [6] was determined as 80%; with Lindernia pyxidaria [10] it was 100%. Besides, the “herbicidal effect, Crabgrass” value in the assay on crabgrass [11] is 90%; in the assay on crabgrass [15] it was 100%. Further, the “herbicidal effect, Chenopodium album” value with Chenopodium album [12] worked out at 80%; in the assay with Chenopodium album [16], 100%.

`CCC(C)S(=O)(=O)n1ncn(C(=O)N(c2ccc(F)cc2F)C(C)C)c1=O` (centres unmarked) [Compound 11-93]: the “herbicidal effect, Amaranthus viridis” value in the assay on Amaranthus viridis [1] and in the assay with Amaranthus viridis [13] was 90% in each case. Besides, the “herbicidal effect, Echinochloa crus-galli” value with Echinochloa crus-galli [2] and with Echinochloa crus-galli [14] was 80% throughout. Further, the “Weed suppression rate (%) Scirpus juncoides” value in the assay on Scirpus juncoides [3] and with Scirpus juncoides [7] was 90% each time. In addition, the “Weed suppression rate (%) Echinochloa crus-galli” value in the assay with Echinochloa crus-galli [4] and in the assay with Echinochloa crus-galli [8] was 90% throughout. Moreover, the “Weed suppression rate (%) Monochoria vaginalis” value with Monochoria vaginalis [5] and in the assay on Monochoria vaginalis [9] was 90% throughout. The “Weed suppression rate (%) Lindemia pyxidaria” value came to 80% in the assay on Lindernia pyxidaria [6] and 90% in the assay with Lindernia pyxidaria [10]. The “herbicidal effect, Crabgrass” value in the assay on crabgrass [11] and with crabgrass [15] was 90% in each case. In addition, the “herbicidal effect, Chenopodium album” value in the assay on Chenopodium album [12] and in the assay on Chenopodium album [16] was 80% throughout.

For `CC(C)N(C(=O)n1cnn(S(C)(=O)=O)c1=O)c1ccc(Cl)cn1` [Compound 11-38], the “herbicidal effect, Amaranthus viridis” value in the assay on Amaranthus viridis [1] and in the assay with Amaranthus viridis [13] was 0% each time. Also, the “herbicidal effect, Echinochloa crus-galli” value in the assay with Echinochloa crus-galli [2] and with Echinochloa crus-galli [14] was 90% throughout. Besides, the “Weed suppression rate (%) Scirpus juncoides” value is 90% in the assay with Scirpus juncoides [3] and 70% in the assay on Scirpus juncoides [7]. Besides, the “Weed suppression rate (%) Echinochloa crus-galli” value in the assay on Echinochloa crus-galli [4] and in the assay on Echinochloa crus-galli [8] was 100% in each case. Besides, the “Weed suppression rate (%) Monochoria vaginalis” value was 80% in the assay on Monochoria vaginalis [5] and 70% in the assay with Monochoria vaginalis [9]. The “Weed suppression rate (%) Lindemia pyxidaria” value was determined as 90% in the assay with Lindernia pyxidaria [6] and 80% in the assay on Lindernia pyxidaria [10]. Moreover, the “herbicidal effect, Crabgrass” value with crabgrass [11] and in the assay with crabgrass [15] was 90% throughout. Besides, the “herbicidal effect, Chenopodium album” value is given as 0% with Chenopodium album [12] and 40% in the assay with Chenopodium album [16].

As for `CC(C)N(C(=O)n1cnn(S(=O)(=O)C2CCCCC2)c1=O)c1ccc(F)c(F)c1F` [Compound 11-297], the “herbicidal effect, Amaranthus viridis” value in the assay on Amaranthus viridis [1] turned out to be 90%; in the assay with Amaranthus viridis [13] it was 100%. Besides, the entries for the “herbicidal effect, Echinochloa crus-galli” value in the assay on Echinochloa crus-galli [2] and with Echinochloa crus-galli [14] were 100% and 90%, respectively. For the same compound, the “Weed suppression rate (%) Scirpus juncoides” value in the assay with Scirpus juncoides [3] and with Scirpus juncoides [7] was 100% throughout. For the same compound, the “Weed suppression rate (%) Echinochloa crus-galli” value with Echinochloa crus-galli [4] and in the assay with Echinochloa crus-galli [8] was 100% each time. The “Weed suppression rate (%) Monochoria vaginalis” value in the assay with Monochoria vaginalis [5] is on record as 100%; in the assay on Monochoria vaginalis [9], 90%. The “Weed suppression rate (%) Lindemia pyxidaria” value with Lindernia pyxidaria [6] is reported as 70%; in the assay with Lindernia pyxidaria [10] it was 100%. In addition, the “herbicidal effect, Crabgrass” value in the assay on crabgrass [11] is listed as 100%; in the assay on crabgrass [15], 90%. The “herbicidal effect, Chenopodium album” value came to 60% with Chenopodium album [12] and 70% with Chenopodium album [16].

For the compound `CC(C)N(C(=O)n1cnn(S(=O)(=O)N(C)C)c1=O)c1ccc(F)cc1Cl` [Compound 11-1071], the “herbicidal effect, Amaranthus viridis” value with Amaranthus viridis [1] and in the assay on Amaranthus viridis [13] was 90% in each case. Also, the “herbicidal effect, Echinochloa crus-galli” value in the assay with Echinochloa crus-galli [2] and in the assay on Echinochloa crus-galli [14] was 80% throughout. In addition, the “Weed suppression rate (%) Scirpus juncoides” value in the assay with Scirpus juncoides [3] and in the assay with Scirpus juncoides [7] was 90% throughout. For the same compound, the “Weed suppression rate (%) Echinochloa crus-galli” value in the assay with Echinochloa crus-galli [4] and in the assay with Echinochloa crus-galli [8] was 90% each time. The “Weed suppression rate (%) Monochoria vaginalis” value in the assay with Monochoria vaginalis [5] and in the assay with Monochoria vaginalis [9] was 80% throughout. Also, the “Weed suppression rate (%) Lindemia pyxidaria” value in the assay with Lindernia pyxidaria [6] and in the assay with Lindernia pyxidaria [10] was 80% each time. Also, the “herbicidal effect, Crabgrass” value in the assay on crabgrass [11] and in the assay on crabgrass [15] was 90% each time. Further, the “herbicidal effect, Chenopodium album” value with Chenopodium album [12] and with Chenopodium album [16] was 80% each time.

Consider `Cc1ccc(N(C(=O)n2cnn(S(=O)(=O)CCl)c2=O)C(C)C)c(F)c1` [Compound 11-123], for which the “herbicidal effect, Amaranthus viridis” value with Amaranthus viridis [1] and in the assay on Amaranthus viridis [13] was 90% throughout. For the same compound, the “herbicidal effect, Echinochloa crus-galli” value in the assay with Echinochloa crus-galli [2] and in the assay with Echinochloa crus-galli [14] was 80% each time. Further, the “Weed suppression rate (%) Scirpus juncoides” value in the assay on Scirpus juncoides [3] and in the assay on Scirpus juncoides [7] was 90% each time. In addition, the “Weed suppression rate (%) Echinochloa crus-galli” value with Echinochloa crus-galli [4] and with Echinochloa crus-galli [8] was 90% each time. Further, the “Weed suppression rate (%) Monochoria vaginalis” value in the assay on Monochoria vaginalis [5] and in the assay with Monochoria vaginalis [9] was 80% in each case. In addition, the “Weed suppression rate (%) Lindemia pyxidaria” value in the assay on Lindernia pyxidaria [6] and in the assay with Lindernia pyxidaria [10] was 80% in each case. Besides, the “herbicidal effect, Crabgrass” value with crabgrass [11] and with crabgrass [15] was 90% each time. Also, the “herbicidal effect, Chenopodium album” value with Chenopodium album [12] and in the assay on Chenopodium album [16] was 80% throughout.

Consider `CCN(CC)C(=O)n1cnn(S(=O)(=O)c2ccccc2Cl)c1=O` [Compound 11-500], for which the “herbicidal effect, Amaranthus viridis” value with Amaranthus viridis [1] is 40%; in the assay with Amaranthus viridis [13], 0%. The “herbicidal effect, Echinochloa crus-galli” value with Echinochloa crus-galli [2] is listed as 40%; with Echinochloa crus-galli [14], 80%. Moreover, the figures for the “Weed suppression rate (%) Scirpus juncoides” value in the assay on Scirpus juncoides [3] and with Scirpus juncoides [7] were 60% and 50%, respectively. The “Weed suppression rate (%) Echinochloa crus-galli” value in the assay on Echinochloa crus-galli [4] is 80%; in the assay with Echinochloa crus-galli [8] it was 90%. Also, the “Weed suppression rate (%) Monochoria vaginalis” value in the assay on Monochoria vaginalis [5] came to 60%; in the assay on Monochoria vaginalis [9] it was 50%. Also, the figures for the “Weed suppression rate (%) Lindemia pyxidaria” value in the assay with Lindernia pyxidaria [6] and in the assay on Lindernia pyxidaria [10] were 60% and 50%, respectively. Further, the entries for the “herbicidal effect, Crabgrass” value in the assay with crabgrass [11] and with crabgrass [15] were 40% and 80%, respectively. Further, the “herbicidal effect, Chenopodium album” value in the assay with Chenopodium album [12] is 50%; in the assay with Chenopodium album [16] it was 0%.

As to `CC(C)N(C(=O)n1cnn(S(=O)(=O)C2CC2)c1=O)c1ccc(F)cc1F` [Compound 11-142, 1-cyclopropylsulfonyl-N-(2,4-difluorophenyl)-N-isopropyl-5-oxo-1,2,4-triazole-4-carboxamide], the “herbicidal effect, Amaranthus viridis” value with Amaranthus viridis [1] and with Amaranthus viridis [13] was 90% each time. For the same compound, the “herbicidal effect, Echinochloa crus-galli” value in the assay on Echinochloa crus-galli [2] and with Echinochloa crus-galli [14] was 80% throughout. For the same compound, the “Weed suppression rate (%) Scirpus juncoides” value in the assay with Scirpus juncoides [3] is given as 80%; with Scirpus juncoides [7] it was 100%. Besides, the “Weed suppression rate (%) Echinochloa crus-galli” value with Echinochloa crus-galli [4] and with Echinochloa crus-galli [8] was 100% throughout. The “Weed suppression rate (%) Monochoria vaginalis” value in the assay on Monochoria vaginalis [5] and in the assay with Monochoria vaginalis [9] was 90% in each case. Besides, the figures for the “Weed suppression rate (%) Lindemia pyxidaria” value in the assay on Lindernia pyxidaria [6] and in the assay with Lindernia pyxidaria [10] were 80% and 100%, respectively. The “herbicidal effect, Crabgrass” value in the assay on crabgrass [11] and in the assay with crabgrass [15] was 90% in each case. In addition, the “herbicidal effect, Chenopodium album” value in the assay on Chenopodium album [12] and with Chenopodium album [16] was 80% in each case.
